From US20150313913A1, “POSITIVE ALLOSTERIC MODULATORS OF THE GABA-A RECEPTOR IN THE TREATMENT OF AUTISM” (UNIVERSITY OF WASHINGTON THROUGH ITS CENTER FOR …, priority 2013, published 2015)
“Also recorded” adds a separate entry of the source.

How the values were obtained:
[1] = test system: mouse genetic models of human Dravet syndrome and idiopathic autism; experiment: Summary: low-dose treatment of mouse models of autism; assay type: in vivo, mice; settings: low doses that do not induce sedative or anxiolytic effects
Description: The present disclosure describes methods effective in the rescue or amelioration of autism-like behavior, cognitive deficit, and context-dependent spatial memory.
In particular embodiments, these methods comprise the administration of low doses of a benzodiazepine to a human or other mammalian subject in order to rescue autism-like behavior, cognitive deficit, and context-dependent spatial memory. […] At such low doses, the administration of benzodiazepines, such as CLZ, to mammalian subjects will result in improvement of autism-like behavior, cognitive deficit, and context-dependent spatial learning and memory with much lower levels of sedation compared to mammalian subjects who receive typical higher doses of CLZ or other benzodiazepines that are used for treatment of anxiety, insomnia, or seizure.
The present disclosure is also directed to methods of rescuing or ameliorating indicia of Autism Spectrum disorders, autism-like behavior, cognitive deficit, and context-dependent spatial learning and memory in Dravet syndrome or idiopathic autism with α-2,3-specific GABA-A receptor positive allosteric modifiers. Such α-2,3-subunit selective GABA-A receptor positive allosteric modifiers include L838,417.
Therapeutic approaches to treat autistic traits in animal studies or in clinical trials have primarily focused on reducing excitatory neurotransmission in glutamatergic synapses to rebalance E/I ratio in autistic brain (Michalon et al., 2012; Yang et al., 2012). However, autistic-like behaviors in ASD mouse models are only partially reversed by drugs that inhibit excitatory neurotransmission, and these drugs also have unwanted side effects on wild-type mice (Henderson et al., 2012; Michalon et al., 2012; Yang et al., 2012). To overcome these drawbacks, the inventors focused on the opposing side, the GABAergic inhibitory transmission in autistic brain. Their results highlight the potential for therapy of autistic-like behaviors and cognitive deficit in ASD by low-dose treatment with subunit-selective benzodiazepines and other positive allosteric modulators of GABA-A receptors. […] It is possible that the biphasic dose-response relationship of the positive allosteric modulators reflects their actions on receptors containing α2,3 subunits at low doses and on receptors containing α1 subunits at higher doses.

Scn1a+/− mice = experiment: Three-chamber social preference test; assay type: in vivo
Description: The mouse was allowed to freely explore each chamber. […] The recorded video file was further analyzed by off-line video tracking software (ETHOVISION™ XT 7.0). […] All data shown are means±s.e.m. and analyzed using two-way ANOVA with Bonferroni's post hoc analysis and one-way ANOVA with Tukey's post hoc analysis.
Oral administration is specifically contemplated for the methods described herein, and is well known for both benzodiazepines and non-BDZ GABA-A enhancers as described herein.
(§1) The test was performed as described previously (Han et al., 2012) with minor modifications. The threechamber apparatus is a non-transparent Plexiglas box (30×60 cm) with two transparent partitions that make left, center, and right chambers (30×20 cm). In the first 10-min session, a test mouse was placed in the center of the empty three-chamber unit to habituate the test mouse. The mouse was allowed to freely explore each chamber. In the second 10-min session, an age- and gender-matched same strain mouse that had never been exposed to the test mouse, was placed in one of the two wire cages. The empty wire cage as an inanimate object cue was placed on the other side. Then, the test mouse was placed again in the center, and allowed to freely explore the chamber for 10 min. Time spent in each chamber, and time spent within a 5 cm radius proximal to each wire cage, as a close interaction were measured by the videotracking software (EthoVision XT 8.5, Noldus Technology). All data shown are means±s.e.m. and analyzed using two-way ANOVA with Bonferroni's post hoc analysis and one-way ANOVA with Tukey's post hoc analysis.
(§2) L-838,417, and DMCM (Sigma), dissolved in 100% DMSO (sterile, Sigma) was diluted in PBS (the final concentration of DMSO was ranged from 0.005% to 0.1%). Drugs were administered by an intraperitoneal injection in a volume of […] 30 min before the behavioral tests.

BTBR mice [2] = experiment: Three-chamber social interaction test; settings: for social interaction deficit: 0.05 mg/kg (low dose) 30 min before test; for effect on social interaction at doses above the maximally effective dose: higher doses; for dose of maximal effect on social interaction: i.p., 30 min before test; for social interaction (time with stranger mouse, close interaction), dose series: single i.p. injection 30 min before test, low/increasing doses
Procedure: In the three-chamber test, a test mouse is placed in the center chamber, and the preference of the test mouse for interaction with an inanimate object (a small empty cage) in the left chamber vs. a stranger mouse in an identical cage in the right chamber using a digital camera and quantitative video-tracking analysis.
as §1, §2

C57BL/6J mice = experiment: Three-chamber social interaction test; assay type: in vivo; settings: for social interaction preference, Pre/CLZ/Post protocol: low dose (0.05 mg/kg), 0.05 mg/kg
Description: The mouse was allowed to freely explore each chamber.

BTBR mice [3] = experiment: Context-dependent fear conditioning test; assay type: in vivo
Description: The contextual fear-conditioning chamber was a square arena (25×25 cm) with clear PLEXIGLAS™ walls and a metal grid floor connected to a circuit board that delivered shocks to the metal grid (COULBOURN INSTRUMENTS™). An analog camera was attached on top of the chamber. The camera and the circuit board were connected to a personal computer, and its software (FREEZE FRAME™ 2.0, ACTIMETRICS™) controlled the circuit and recorded the data. The chamber was cleaned with 70% ethanol and wiped with paper towels before each session. In the habituation session, a test mouse was placed in the chamber and allowed to explore for 2 min^66-69. Immediately after habituation, the test mouse received a single mild foot shock (2 s, 0.5 mA). After staying in the chamber one more min, the mouse was removed from the chamber. For the 30-min short-term memory test, the mouse was returned to the context 30 min after the end of the training session. For 24-hr long-term memory test, the mouse was returned to the context 24 hr after the training session. The movement of mice was also recorded by a USB webcam (LIFECAM™ HD-6000, MICROSOFT™) and PC-based video capture software (WINAVI™ Video Capture, ZJ MEDIA DIGITAL TECHNOLOGY™) for 2 min. The recorded video file was further analyzed by off-line video tracking software (ETHOVISION™ XT 7.0, NOLDUS TECHNOLOGY™). The freezing scores were calculated by dividing the test session into 1 min bouts and averaging together all 2 min for each animal. All data shown.
Freezing behavior is defined as the period during which the velocity of the test mouse is less than 1.75 cm/s, and non-freezing behavior is defined as the period during which the velocity of the mouse is greater than 2 cm/s.

GABA-A receptor = settings: cited from earlier work

Question: With O=C1CN=C(c2ccccc2Cl)c2cc([N+](=O)[O-])ccc2N1 [Clonazepam] as the compound, how does the “autistic-like behaviors and cognitive deficit in BTBR mice (summary)” value [1] read?
Answer: improved

Question: And the “social interaction, 3-chamber social preference test” value (Scn1a+/− mice; single i.p. 0.0625 mg/kg 30 min before test, listed as CLZ, 0.0625 mg/kg)?
Answer: completely rescued; also recorded: completely restored; also recorded: completely recovered

Question: What about the social interaction deficit (BTBR mice [2]) of the same compound?
Answer: reversibly rescued; also recorded: improved

Question: What about the social interaction deficit (BTBR mice [2]; listed as CLZ) of the same compound?
Answer: recover their preference

Question: What about the “social interactions on Day 1 of repeated treatment” value (BTBR mice [2]; 0.05 mg/kg i.p. daily) of the same compound?
Answer: significantly increased

Question: And the “social interactions after 14 days of repeated treatment” value (BTBR mice [2]; 0.05 mg/kg i.p. daily for 14 days)?
Answer: fully retained and even increased

Question: And the “sedation / total distance moved during the three-chamber test” value (BTBR mice [2]; dose range up to 0.5 mg/kg (clonazepam: test doses))?
Answer: did not cause sedation; also recorded: no sedation

Question: And the “improvement of social deficit: time of interaction with stranger mouse vs. novel object” value (BTBR mice [2]; dose series (FIG. 39D))?
Answer: strikingly dose-dependent

Question: What about the “increase of time spent in the chamber containing the stranger mouse” value (BTBR mice [2]; doses from 0.00625 mg/kg to 0.05 mg/kg i.p.) of the same compound?
Answer: approximately 2.5 fold

Question: What about the “effect on social interaction at doses above the maximally effective dose” value (BTBR mice [2]) of the same compound?
Answer: not observed; also recorded: lost at higher doses

Question: What about the “dose of maximal effect on social interaction” value (BTBR mice [2]) of the same compound?
Answer: 0.05 mg/kg

Question: And the “tolerance to rescue of social interaction behavior” value (BTBR mice [2]; repeated 0.05 mg/kg, 14 days)?
Answer: does not elicit tolerance

Question: What about the “social interaction (time with stranger mouse, close interaction), dose series” value (shortened to “social interaction … dose series”) (BTBR mice [2]) of the same compound?
Answer: rescued; also recorded: increased

Question: And the “time of interaction with stranger mouse vs. novel object” value (C57BL/6J mice; any of the test doses (FIG. 39C))?
Answer: unaffected

Question: What about the “social interactions / close interaction” value (C57BL/6J mice; clonazepam single injection, 0-0.1 mg/kg) of the same compound?
Answer: not altered; also recorded: no effect

Question: And the “social interaction preference, Pre/CLZ/Post protocol” value (C57BL/6J mice)?
Answer: not changed; also recorded: None of these treatments had any significant effect

Question: And the “social interaction preference, Pre/CLZ/Post protocol” value (C57BL/6J mice; listed as CLZ)?
Answer: does not significantly alter

Question: What about the “short-term and long-term memory” value (BTBR mice [3]; 0.0125 mg/kg) of the same compound?
Answer: no significant effects

Question: And the “long-term (24 h) memory” value (BTBR mice [3]; 0.05 mg/kg)?
Answer: improved

Question: And the “short-term (30 min) memory” value (BTBR mice [3]; 0.05 mg/kg)?
Answer: improved

Question: What about the “short-term and long-term memory” value (BTBR mice [3]; 0.1 mg/kg) of the same compound?
Answer: no significant effects

Question: And the “context-dependent fear memory on Day 1 and Day 14” value (BTBR mice [3]; daily 0.05 mg/kg for 14 days)?
Answer: improved

Question: And the “tolerance to effects on cognitive deficit” value (BTBR mice [3]; daily 0.05 mg/kg for 14 days)?
Answer: does not cause tolerance

Question: And the “spatial learning in context-dependent fear conditioning” value (BTBR mice [3]; low-dose CLZ (FIG. 10))?
Answer: rescued

Question: What about the “Effect at GABA-A receptor” value (GABA-A receptor; Table 1, exemplary benzodiazepines) of the same compound?
Answer: Agonist Long- acting

Question: With Cn1ncnc1COc1nn2c(-c3cc(F)ccc3F)nnc2cc1C(C)(C)C [L-838,417] as the compound, how does the “autistic-like behaviors and cognitive deficit in BTBR mice (summary)” value [1] read?
Answer: improved

Question: And the “social interactions in three-chamber test” value (Scn1a+/− mice; low doses, narrow dose range (FIGS. 41N, 41O))?
Answer: improves social interactions

Question: And the social interaction deficit (BTBR mice [2])?
Answer: rescued

Question: And the “social behavior (close interaction)” value (BTBR mice [2]; 0.5 mg/kg)?
Answer: disappeared

Question: And the “dose at low point of time in the chamber with the inanimate object” value (BTBR mice [2]; biphasic dose-response)?
Answer: 0.05 mg/kg

Question: And the “effect on social interaction at doses above the maximally effective dose” value (BTBR mice [2])?
Answer: lost when the dose increased

Question: And the “effect on social interaction at doses above the maximally effective dose” value (BTBR mice [2]; listed as L838,417)?
Answer: reduced response

Question: And the “dose of maximal effect on social interaction” value (BTBR mice [2])?
Answer: 0.05 mg/kg

Question: And the “time of interaction with the inanimate object” value (BTBR mice [2]; increasing doses)?
Answer: decrease

Question: What about the “total movement during the three-chamber test at high dose” value (BTBR mice [2]; mouse, in vivo) of the same compound?
Answer: tended to increase

Question: What about the “social interaction … dose series” value (BTBR mice [2]) of the same compound?
Answer: increased

Question: And the “social interaction … dose series” value (BTBR mice [2]; listed as L818,417)?
Answer: progressively increase

Question: And the “social behavior, dose series” value (C57BL/6J mice; L-838,417 / zolpidem (FIGS. 45I, 45J))?
Answer: not changed; also recorded: did not change

Question: And the “long-term (24 h) memory” value (BTBR mice [3]; 0.05 mg/kg)?
Answer: improved

Question: And the “short-term (30 min) memory” value (BTBR mice [3]; 0.05 mg/kg)?
Answer: improved

Question: And the “memory of the spatial context” value (BTBR mice [3]; 0.05 mg/kg 30 min before training session and 24-h memory session)?
Answer: substantially improved

Question: What about the “spatial learning behavior (FIG. 13B legend)” value (BTBR mice [3]; 0.05 mg/kg, legend body prints DS mice, title BTBR mice) of the same compound?
Answer: substantially rescued

Question: What about the “Effect at GABA receptor” value (GABA-A receptor; Table 2, exemplary SS-PAMs) of the same compound?
Answer: Partial agonist Selective for α2, α3 (and possibly α5) subunits
